Test results reported in patent EP0542497A1, “Heterocyclic compounds” (THE WELLCOME FOUNDATION LIMITED, priority 1991, dated 1993).

Test system: Mycobacterium tuberculosis
Assay: In vitro activity vs Mycobacterium tuberculosis, proportion method
Assay type: cell-based
Conditions: ten(10) clinical isolates of Myco. tuberculosis (including several multiply-resistant strains), read-out: average MIC

CCC(CC)n1c(C)cc2c3c(N)nc(N)nc3ccc21 [Compound 2, 1,3-Diamino-7-(1-ethylpropyl)-8-methyl-7H-pyrrolo(3,2-f)quinazoline]
M I C: 3.2 µg/mL
